Reference: PubChem BioAssay AID2060613 (Molecular Pharmacology Branch, DTP, NCI, 2025)

Tested on: 233499-124-R-J3-PDC complex spheroid viability
Experiment: Anticancer human tumor 233499-124-R-J3-PDC patient-derived colon adenocarcinoma cell line growth inhibition [CLK]
Details: for IC50: curve of first compound; for viability, T/C: stronger effect = lower value
How it was run: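 Multi-cell-type spheroids combined patient-derived tumor cells with HUVEC endothelial cells and human mesenchymal stem cells. Paired agents were dosed in half-log steps down from about clinical Cmax, or from 10 microM where Cmax was unknown.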

[1] = second compound 0.0316 µM, first compound 0.0316 µM
[2] = second compound 0.0316 µM, first compound 0.1 µM
[3] = second compound 0.0316 µM, first compound 0.316 µM
[4] = second compound 0.0316 µM, first compound 1 µM
[5] = second compound 0.0316 µM, first compound 3.16 µM
[6] = second compound 0.0316 µM, first compound 10 µM
[7] = second compound 0.1 µM, first compound 0.0316 µM
[8] = second compound 0.1 µM, first compound 0.1 µM
[9] = second compound 0.1 µM, first compound 0.316 µM
[10] = second compound 0.1 µM, first compound 1 µM
[11] = second compound 0.1 µM, first compound 3.16 µM
[12] = second compound 0.1 µM, first compound 10 µM
[13] = second compound 0.316 µM, first compound 0.0316 µM
[14] = second compound 0.316 µM, first compound 0.1 µM
[15] = second compound 0.316 µM, first compound 0.316 µM
[16] = second compound 0.316 µM, first compound 1 µM
[17] = second compound 0.316 µM, first compound 3.16 µM
[18] = second compound 0.316 µM, first compound 10 µM
[19] = second compound 1 µM, first compound 0.0316 µM
[20] = second compound 1 µM, first compound 0.1 µM
[21] = second compound 1 µM, first compound 0.316 µM
[22] = second compound 1 µM, first compound 1 µM
[23] = second compound 1 µM, first compound 3.16 µM
[24] = second compound 1 µM, first compound 10 µM
[25] = second compound 3.16 µM, first compound 0.0316 µM
[26] = second compound 3.16 µM, first compound 0.1 µM
[27] = second compound 3.16 µM, first compound 0.316 µM
[28] = second compound 3.16 µM, first compound 1 µM
[29] = second compound 3.16 µM, first compound 3.16 µM
[30] = second compound 3.16 µM, first compound 10 µM
[31] = second compound 10 µM, first compound 0.0316 µM
[32] = second compound 10 µM, first compound 0.1 µM
[33] = second compound 10 µM, first compound 0.316 µM
[34] = second compound 10 µM, first compound 1 µM
[35] = second compound 10 µM, first compound 3.16 µM
[36] = second compound 10 µM, first compound 10 µM
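Note: spheroids exposed to the drug combinations for seven days.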
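Throughout, for viability, T/C: percent viability relative to DMSO vehicle control wells taken as 100%.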

In the case of `COc1cccc2c1C(=O)c1c(O)c3c(c(O)c1C2=O)CC(O)(C(=O)CO)CC3OC1CC(N)C(O)C(C)O1` (centres undefined) + CN1CCN(c2cc(C(=O)Nc3cc4cc(-c5cnn(C)c5)ccc4cn3)ccn2)CC1, the IC50 (second compound 0.0316 µM) is reported as 2.55 µM, the IC50 (second compound 0.1 µM) is reported as 1.78 µM and the IC50 (second compound 0.316 µM) is reported as 1.94 µM. The IC50 (second compound 1 µM) was < 0.0316 µM, the IC50 (second compound 3.16 µM) was < 0.0316 µM and the IC50 (second compound 10 µM) was < 0.0316 µM. The viability, T/C [1] was 80.4%, the viability, T/C [2] was 110% and the viability, T/C [3] was 106%. For the same molecule, the viability, T/C [4] was 80.9%, the viability, T/C [5] was 43.2% and the viability, T/C [6] was 10.8%. The viability, T/C [7] was 98%, the viability, T/C [8] was 110% and the viability, T/C [9] was 100%. For the same molecule, the viability, T/C [10] was 68.5%, the viability, T/C [11] was 30.7% and the viability, T/C [12] was 5.13%. The viability, T/C [13] was 84.7%, the viability, T/C [14] was 97.6% and the viability, T/C [15] was 66.5%. For the same molecule, the viability, T/C [16] was 61.9%, the viability, T/C [17] was 44.4% and the viability, T/C [18] was 2.79%. The viability, T/C [19] was 0.46%, the viability, T/C [20] was 0.59% and the viability, T/C [21] was 10.8%. The viability, T/C [22] was 0.33%, the viability, T/C [23] was 5.03% and the viability, T/C [24] was 0.81%. The viability, T/C [25] was 0.55%, the viability, T/C [26] was 0.57% and the viability, T/C [27] was 0.48%. It also gave a viability, T/C [28] of 0.43%, a viability, T/C [29] of 0.53% and a viability, T/C [30] of 0.67%. For the same molecule, the viability, T/C [31] was 0.35%, the viability, T/C [32] was 0.39% and the viability, T/C [33] was 0.38%. It also gave a viability, T/C [34] of 0.34%, a viability, T/C [35] of 0.3% and a viability, T/C [36] of 0.24%.

In the case of `CCCS(=O)(=O)Nc1ccc(F)c(C(=O)c2c[nH]c3ncc(-c4ccc(Cl)cc4)cc23)c1F` + CNC(=O)c1ccc(Nc2nc(OC3CCCC3)c3c(-c4ccc5nc(C)oc5c4)c[nH]c3n2)c(OC)c1, the IC50 (second compound 0.0316 µM) is reported as > 10 µM, the IC50 (second compound 0.1 µM) is reported as > 10 µM and the IC50 (second compound 0.316 µM) is reported as 8.4 µM. It also gave an IC50 (second compound 1 µM) of 5.87 µM, an IC50 (second compound 3.16 µM) of 5.07 µM and an IC50 (second compound 10 µM) of 4.15 µM. It also gave a viability, T/C [1] of 89.6%, a viability, T/C [2] of 96.5% and a viability, T/C [3] of 103%. For the same molecule, the viability, T/C [4] was 102%, the viability, T/C [5] was 97.9% and the viability, T/C [6] was 64.9%. It also gave a viability, T/C [7] of 75.7%, a viability, T/C [8] of 86.8% and a viability, T/C [9] of 82.2%. For the same molecule, the viability, T/C [10] was 86.8%, the viability, T/C [11] was 85.5% and the viability, T/C [12] was 50%. It also gave a viability, T/C [13] of 75.9%, a viability, T/C [14] of 87.4% and a viability, T/C [15] of 90.6%. It also gave a viability, T/C [16] of 90.3%, a viability, T/C [17] of 90.3% and a viability, T/C [18] of 43.4%. The viability, T/C [19] was 90.1%, the viability, T/C [20] was 90.5% and the viability, T/C [21] was 78.7%. For the same molecule, the viability, T/C [22] was 85.3%, the viability, T/C [23] was 91% and the viability, T/C [24] was 18%. The viability, T/C [25] was 76.1%, the viability, T/C [26] was 90.1% and the viability, T/C [27] was 84.6%. It also gave a viability, T/C [28] of 83.6%, a viability, T/C [29] of 76.5% and a viability, T/C [30] of 11.9%. For the same molecule, the viability, T/C [31] was 76.7%, the viability, T/C [32] was 78.4% and the viability, T/C [33] was 79.2%. It also gave a viability, T/C [34] of 81.3%, a viability, T/C [35] of 60.9% and a viability, T/C [36] of 14.6%.
